Results: patent publication US9765067B2, “Thiophen-2-yl-pyridin-2-yl-1H-pyrazole-4-carboxylic acid derivatives and the use thereof as soluble guanylate cyclase activators” (Novartis AG, priority 2014, dated 2017)
pEC50: −log10 of the molar value. “And” between values parts separate entries of the source, which are not always exact repeats. Equal entries are not always repeated.

What follows are compounds tested against T1, soluble guanylate cyclase (human GUCYA3/GUCYB3) overexpressed in CHO cells (Homo sapiens, UniProt Q02108+Q02153) (assay: CHO cellular assay (cGMP production, HTRF)). Conditions: CHO K1 clone 8E10 overexpressing human sGC, Cisbio HTRF, 1 h room temperature, 1 mM IBMX, 20 uM ODQ, minimum quantification limit 0.5 nM.
T1 construct: expressed in transfected cells
T1 sequence (Q02108 1-690 partner): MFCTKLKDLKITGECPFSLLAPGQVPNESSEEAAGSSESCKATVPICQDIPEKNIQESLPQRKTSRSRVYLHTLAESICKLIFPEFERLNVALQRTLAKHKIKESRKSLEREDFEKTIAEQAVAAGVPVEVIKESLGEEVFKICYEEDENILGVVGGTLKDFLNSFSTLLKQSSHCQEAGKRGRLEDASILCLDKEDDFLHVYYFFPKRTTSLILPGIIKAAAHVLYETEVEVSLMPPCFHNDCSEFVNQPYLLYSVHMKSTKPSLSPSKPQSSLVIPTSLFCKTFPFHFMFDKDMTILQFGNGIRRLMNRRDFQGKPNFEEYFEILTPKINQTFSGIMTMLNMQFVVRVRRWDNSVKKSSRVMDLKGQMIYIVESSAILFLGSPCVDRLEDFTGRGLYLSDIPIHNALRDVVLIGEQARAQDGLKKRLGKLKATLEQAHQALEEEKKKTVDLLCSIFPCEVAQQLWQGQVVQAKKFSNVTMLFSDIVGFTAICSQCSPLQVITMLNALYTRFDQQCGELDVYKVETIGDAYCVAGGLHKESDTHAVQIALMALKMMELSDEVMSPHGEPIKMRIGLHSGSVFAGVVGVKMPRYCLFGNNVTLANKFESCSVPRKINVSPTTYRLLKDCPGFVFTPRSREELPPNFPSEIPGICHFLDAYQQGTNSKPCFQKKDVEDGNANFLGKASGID
T1 sequence (Q02153 1-619): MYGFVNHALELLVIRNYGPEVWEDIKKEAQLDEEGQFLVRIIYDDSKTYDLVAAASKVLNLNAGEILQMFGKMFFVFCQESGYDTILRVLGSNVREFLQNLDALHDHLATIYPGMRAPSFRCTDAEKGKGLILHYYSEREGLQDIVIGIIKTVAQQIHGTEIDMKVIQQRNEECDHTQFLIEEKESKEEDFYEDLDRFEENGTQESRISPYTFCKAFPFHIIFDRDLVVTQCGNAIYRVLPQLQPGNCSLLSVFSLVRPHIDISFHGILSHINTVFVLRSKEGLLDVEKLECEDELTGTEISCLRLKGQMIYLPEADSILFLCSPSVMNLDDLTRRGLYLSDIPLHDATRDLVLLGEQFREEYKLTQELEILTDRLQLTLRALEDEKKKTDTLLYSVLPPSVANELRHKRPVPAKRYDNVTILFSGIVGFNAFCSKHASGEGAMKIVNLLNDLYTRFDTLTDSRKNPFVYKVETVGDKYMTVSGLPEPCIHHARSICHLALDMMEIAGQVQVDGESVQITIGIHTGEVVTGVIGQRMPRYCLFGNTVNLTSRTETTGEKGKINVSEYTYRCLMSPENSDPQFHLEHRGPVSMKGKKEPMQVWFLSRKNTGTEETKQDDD
Assay type: cell-based
Summary of the method: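 Stable CHO K1 clone expressing human GUCYA3/GUCYB3. Compounds applied 1 h at room temperature in HBSS, 0.1% BSA, 1 mM IBMX, 20 uM ODQ, 0.5% DMSO. cGMP measured by HTRF and interpolated from a standard curve; EC50 from 4-parameter sigmoidal fit.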

pEC50 | Structure (SMILES)
7.34 | Cc1cc(C2CCN(C(=O)C3CC(O)C3)CC2)ccc1OCc1ccsc1-c1cccc(-n2ncc(C(=O)O)c2C(F)(F)F)n1 (stereo not drawn) [Example 12-5, 1-(6-(3-((4-(1-(3-Hydroxycyclobutanecarbonyl)piperidin-4-yl)-2-methylphenoxy)methyl)thiophen-2-yl)pyridin-2-yl)-5-(trifluoromethyl)-1H-pyrazole-4-carboxylic acid]
8.12 | Cc1cc(C2CCN(C(=O)C3COC3)CC2)ccc1OCc1ccsc1-c1cccc(-n2ncc(C(=O)O)c2C(F)(F)F)n1 [Example 12-7, 1-(6-(3-((2-Methyl-4-(1-(oxetane-3-carbonyl)piperidin-4-yl)phenoxy)methyl)thiophen-2-yl)pyridin-2-yl)-5-(trifluoromethyl)-1H-pyrazole-4-carboxylic acid]
8.36 and 9.00 | CCc1cc(OCc2cc(C)sc2-c2cccc(-n3ncc(C(=O)O)c3C)n2)ccc1C1CCN(C(=O)CC2CC2)CC1 [Example 12-8, 1-(6-(3-((4-(1-(2-Cyclopropylacetyl)piperidin-4-yl)-3-ethylphenoxy)methyl)-5-methylthiophen-2-yl)pyridin-2-yl)-5-methyl-1H-pyrazole-4-carboxylic acid]
7.48 | CCc1cc(OCc2cc(C)sc2-c2cccc(-n3ncc(C(=O)O)c3C(F)(F)F)n2)ccc1C1CCN(C(=O)C(C)(C)CO)CC1 [Example 12-10, 1-(6-(3-((3-Ethyl-4-(1-(3-hydroxy-2,2-dimethylpropanoyl)piperidin-4-yl)phenoxy)methyl)-5-methylthiophen-2-yl)pyridin-2-yl)-5-(trifluoromethyl)-1H-pyrazole-4-carboxylic acid]
7.44 | CCc1cc(OCc2cc(C)sc2-c2cccc(-n3ncc(C(=O)O)c3C(F)(F)F)n2)ccc1C1CCN(C(=O)CO)CC1 [Example 12-11, 1-(6-(3-((3-Ethyl-4-(1-(2-hydroxyacetyl)piperidin-4-yl)phenoxy)methyl)-5-methylthiophen-2-yl)pyridin-2-yl)-5-(trifluoromethyl)-1H-pyrazole-4-carboxylic acid]
9.00 | Cc1cc(C2CCN(CC(F)(F)F)CC2)ccc1OCc1ccsc1-c1cccc(-n2ncc(C(=O)O)c2C(F)(F)F)n1 [Example 13, 1-(6-(3-((2-Methyl-4-(1-(2,2,2-trifluoroethyl)piperidin-4-yl)phenoxy)methyl)thiophen-2-yl)pyridin-2-yl)-5-(trifluoromethyl)-1H-pyrazole-4-carboxylic acid]
7.92 | O=C(O)c1cnn(-c2cccc(-c3sccc3COc3ccc(C4CCN(CC(F)(F)F)CC4)cc3)n2)c1C(F)(F)F [Example 14-1, 1-(6-(3-((4-(1-(2,2,2-Trifluoroethyl)piperidin-4-yl)phenoxy)methyl)thiophen-2-yl)pyridin-2-yl)-5-(trifluoromethyl)-1H-pyrazole-4-carboxylic acid]
6.37 | Cc1cc(C2CCN(CC3CC3)CC2)ccc1OCc1ccsc1-c1cccc(-n2ncc(C(=O)O)c2C(F)(F)F)n1 [Example 14-2, 1-(6-(3-((4-(1-(Cyclopropylmethyl)piperidin-4-yl)-2-methylphenoxy)methyl)thiophen-2-yl)pyridin-2-yl)-5-(trifluoromethyl)-1H-pyrazole-4-carboxylic acid]
≥ 9.30 | Cc1cc(C2CCN(C(=O)C3CC3)CC2)ccc1NCc1ccsc1-c1cccc(-n2ncc(C(=O)O)c2C)n1 [Example 15, 1-(6-(3-(((4-(1-(Cyclopropanecarbonyl)piperidin-4-yl)-2-methylphenyl)amino)methyl)thiophen-2-yl)pyridin-2-yl)-5-methyl-1H-pyrazole-4-carboxylic acid]
8.06 | Cc1cc(C2CCN(C(=O)C3CC3)CC2)ccc1NCc1ccsc1-c1cccc(-n2ncc(C(=O)O)c2C(F)(F)F)n1 [Example 16-1, 1-(6-(3-(((4-(1-(Cyclopropanecarbonyl)piperidin-4-yl)-2-methylphenyl)amino)methyl)thiophen-2-yl)pyridin-2-yl)-5-(trifluoromethyl)-1H-pyrazole-4-carboxylic acid]
9.00 | Cc1cc(CNc2ccc(C3CCN(C(=O)C4CC4)CC3)cc2C)c(-c2cccc(-n3ncc(C(=O)O)c3C)n2)s1 [Example 16-2, 1-(6-(3-(((4-(1-(Cyclopropanecarbonyl)piperidin-4-yl)-2-methylphenyl)amino)methyl)-5-methylthiophen-2-yl)pyridin-2-yl)-5-methyl-1H-pyrazole-4-carboxylic acid]
≥ 9.30 | Cc1cc(CNc2ccc(C3CCN(C(=O)C4CC4)CC3)cc2)c(-c2cccc(-n3ncc(C(=O)O)c3C)n2)s1 [Example 16-3, 1-(6-(3-(((4-(1-(Cyclopropanecarbonyl)piperidin-4-yl)phenyl)amino)methyl)-5-methylthiophen-2-yl)pyridin-2-yl)-5-methyl-1H-pyrazole-4-carboxylic acid]
9.00 | CCc1c(C)sc(-c2cccc(-n3ncc(C(=O)O)c3C(F)(F)F)n2)c1COc1ccc(C2CCN(C(=O)C3CC3)CC2)cc1C [Example 17, 1-(6-(3-((4-(1-(Cyclopropanecarbonyl)piperidin-4-yl)-2-methylphenoxy)methyl)-4-ethyl-5-methylthiophen-2-yl)pyridin-2-yl)-5-(trifluoromethyl)-1H-pyrazole-4-carboxylic acid]
8.15 | Cc1cc(C2CCN(C(=O)C3CC3)CC2)ccc1OCc1c(-c2cccc(-n3ncc(C(=O)O)c3C(F)(F)F)n2)sc(C)c1C(C)C [Example 18-1, 1-(6-(3-((4-(1-(Cyclopropanecarbonyl)piperidin-4-yl)-2-methylphenoxy)methyl)-4-isopropyl-5-methylthiophen-2-yl)pyridin-2-yl)-5-(trifluoromethyl)-1H-pyrazole-4-carboxylic acid]
8.70 | CCc1c(C(=O)O)cnn1-c1cccc(-c2sc(C)cc2COc2ccc(C3CCN(CC(F)(F)F)CC3)cc2C)n1 [Example 18-2, 5-Ethyl-1-(6-(5-methyl-3-((2-methyl-4-(1-(2,2,2-trifluoroethyl)piperidin-4-yl)phenoxy)methyl)thiophen-2-yl)pyridin-2-yl)-1H-pyrazole-4-carboxylic acid]
8.70 | CCc1c(C(=O)O)cnn1-c1cccc(-c2sc(C)c(C)c2COc2ccc(C3CCN(CC(F)(F)F)CC3)cc2C)n1 [Example 18-3, 1-(6-(4,5-Dimethyl-3-((2-methyl-4-(1-(2,2,2-trifluoroethyl)piperidin-4-yl)phenoxy)methyl)thiophen-2-yl)pyridin-2-yl)-5-ethyl-1H-pyrazole-4-carboxylic acid]
8.23 | CCc1csc(-c2cccc(-n3ncc(C(=O)O)c3C(F)(F)F)n2)c1COc1ccc(C2CCN(C(=O)C3CC3)CC2)cc1C [Example 18-4, 1-(6-(3-((4-(1-(Cyclopropanecarbonyl)piperidin-4-yl)-2-methylphenoxy)methyl)-4-ethylthiophen-2-yl)pyridin-2-yl)-5-(trifluoromethyl)-1H-pyrazole-4-carboxylic acid]
8.46 | Cc1cc(C2CCN(CC(F)(F)F)CC2)ccc1OCc1c(-c2cccc(-n3ncc(C(=O)O)c3C(F)(F)F)n2)sc(C)c1C [Example 18-5, 1-(6-(4,5-Dimethyl-3-((2-methyl-4-(1-(2,2,2-trifluoroethyl)piperidin-4-yl)phenoxy)methyl)thiophen-2-yl)pyridin-2-yl)-5-(trifluoromethyl)-1H-pyrazole-4-carboxylic acid]
